{"source": "patent US20230045196A1", "about": "“METHODS OF CONTROLLING OR PREVENTING INFESTATION OF PEANUT PLANTS BY PHYTOPATHOGENIC MICROORGANISMS” (SYNGENTA CROP PROTECTION AG, priority 2019, published 2023)", "test_system": "Cercospora arachidicola", "experiment": "Peanut field trial, in-furrow soil application at planting, leafspot disease severity", "assay_type": "in vivo, Cercospora arachidicola on peanut (Arachis hypogaea)", "conditions": "63 days after planting, peanut Ga 09b, COMPOUND 1 SC450 200 g AI/ha, Fluopyram SC500 250 g AI/ha", "protocol": "A peanut field trial was carried out in […], Georgia, USA, to evaluate the efficacy of different compounds against the leafspot disease Cercospora arachidicola. Plot borders (peanuts) were planted in early May and left untreated until there was significant leafspot infection on the borders.\nThe peanuts were then planted in July and treatments applied in-furrow at the same day. The disease occurred mid of September and an assessment on disease severity (% infected area) was done 63 days after planting.\nPest Severity, 63 Days after Planting"}
{"smiles": "O=C(NCCc1ncc(C(F)(F)F)cc1Cl)c1ccccc1C(F)(F)F", "note": "[Fluopyram]", "values": [{"measurement": "% efficacy based on pest severity", "result": 52.64, "unit": "%"}, {"measurement": "% efficacy based on pest severity", "setting": "listed as commercial standard compound 2", "result": 53, "unit": "%"}, {"measurement": "Pest severity (%)", "setting": "% infected area", "result": "15,A %"}]}
